“And” between values parts separate entries of the source, which are not always exact repeats. Identical values can stand only once. “Also recorded” adds a separate entry of the source. Like-named read-outs stand apart in the source and are kept apart here.
Tests used:
[1] = system: RelA; parameters: method as in ref 36 (Table S1 ref 16); conditions: ref 36 (Table S1 ref 16); cited from earlier work
[2] = target: EF-G; parameters: method as in Table S1 (9); conditions: ref Table S1 (9), cited from earlier work
[3] = target: HprT; parameters: method as in ref 39 (Table S1 ref 4); conditions: ref 39 (Table S1 ref 4); read-out: Kd, S. aureus HprT; cited from earlier work
[4] = target: T1, Hpt (Escherichia coli, UniProt P0A9M2); assay: DRaCALA Kd determination, purified Hpt; type: binding, E. coli; conditions: 2 nM 32P-labeled ligand, read-out: apparent Kd, Hpt
Experimental: (§1) For Kd measurements by DRaCALA, 2-fold serial dilutions from the highest possible concentrations of each purified protein were prepared in binding buffer B, and approximately 2 nM concentrations of α-^32P-labeled ppGpp, pppGpp, GTP, and GDP were added. The mixtures were incubated for 5 min at RT before spotting of 2 µl of the reaction mixtures onto nitrocellulose membranes. The fractions of bound ligand and the apparent Kd values were calculated as previously described ([37]). For competition assays, purified proteins at the specified concentrations were incubated with 2 nM [α-^32P]ppGpp or [α-^32P]pppGpp in the presence of 100 μM competitor nucleotides in binding buffer B. The reaction mixtures were incubated for 5 min at RT, 2 µl was spotted onto nitrocellulose membranes, and the values corresponding to the bound fractions were determined. EDTA was added at excess concentrations as specified for each case.

[5] = system: HprT; parameters: method as in ref 46 (Table S1 ref 3); conditions: ref 46 (Table S1 ref 3); read-out: IC50, B. subtilis HprT; cited from earlier work
[6] = target: YgdH (Escherichia coli, UniProt P0ADR8); assay: DRaCALA binding and Kd determination, purified YgdH; parameters: species or system E. coli; conditions: DRaCALA
Experimental: (§2) For Kd measurements by DRaCALA, 2-fold serial dilutions from the highest possible concentrations of each purified protein were prepared in binding buffer B, and approximately 2 nM concentrations of α-^32P-labeled ppGpp, pppGpp, GTP, and GDP were added. The mixtures were incubated for 5 min at RT before spotting of 2 µl of the reaction mixtures onto nitrocellulose membranes. […] For competition assays, purified proteins at the specified concentrations were incubated with 2 nM [α-^32P]ppGpp or [α-^32P]pppGpp in the presence of 100 μM competitor nucleotides in binding buffer B. The reaction mixtures were incubated for 5 min at RT, 2 µl was spotted onto nitrocellulose membranes, and the values corresponding to the bound fractions were determined. EDTA was added at excess concentrations as specified for each case.

[7] = target: LepA (Escherichia coli, UniProt P60785); assay: DRaCALA binding curves, purified LepA; parameters: species or system E. coli; conditions: Kd could not be determined
Experimental: as §1

[8] = target: Era; parameters: method as in Table S1 (4); conditions: ref Table S1 (4); read-out: Kd, S. aureus Era (converted); cited from earlier work
[9] = target: MutT (Escherichia coli, UniProt P08337); assay: In vitro cleavage assay (TLC), MutT; type: biochemical, E. coli; conditions: for cleavage by MutT: purified MutT, buffer B with 10 mM MgCl2, TLC
Experimental: The purified His6-MutT and His6-NudG proteins were tested for their relative levels of cleavage of ppGpp compared to those seen with their native substrates. For this, a 1 μM concentration of each protein and a 10 nM concentration of [α-^32P]ppGpp were used together with 100 μM concentrations of cold competitors [ppGpp, GTP, ATP, 8-oxo-(d)GTP, 2-hydroxyl-(d)ATP] or 50 mM EDTA in buffer B. The samples were incubated at 30°C for 10 min and for 1 h before the reactions were stopped by adding 50 mM EDTA. The cleavage products were resolved by TLC as described above. The purified His6-NadR and His6-TrmE proteins were tested for their cleavage of both GTP and ppGpp. For cleavage of GTP, 10 μM concentrations of His6-MBP, His6-TrmE, and 20 μM His6-NadR proteins were used with 2 nM [α-^32P]GTP and 100 μM cold GTP in buffer B. For cleavage of ppGpp, 10 μM concentrations of His6-TrmE, His6-MBP, and His6-NadR proteins were used with 10 nM [α-^32P]ppGpp in buffer B. Of note, for His6-TrmE, another reaction was also performed in buffer B supplemented with 100 mM KCl. The reactions were performed at RT for 10 min and were stopped by adding 17% formic acid. The cleavage products were resolved by TLC as described above.
A 20 μM concentration of each of purified proteins MutT, NudG, NadR, TrmE, and MBP (as a negative control) was incubated with 100 μM ppGpp in buffer B (containing 40 mM Tris [pH 7.5], 100 mM NaCl, and 10 mM MgCl2) for 20 min at room temperature. Samples were snap-frozen on dry ice and analyzed with UPLC-MS afterward. All samples and buffers were stored at −80°C, thawed on ice, and kept at 4°C during analysis. For the analysis, a UPLC-quadrupole time of flight (UPLC-qTOF) method (Waters) was used. Analysis conditions were as follows: column, zic-HILIC (Merck Millipore) (150 by 2.1 mm, […], gradient elution, flow rate set to 0.3 ml/min); mobile phase A, 10 mM ammonium acetate (pH 5); mobile phase B, 90% acetonitrile with 10 mM ammonium acetate (pH 5). The gradient was set up as follows: min 0 to 2, 80% B; min 2 to 16, 80% B to 50% B; hold until min 20; injection volume, 4 µl. The detection conditions were as follows: photodiode array detector (PDA), […] (evaluated at 260 nm); MS, ionization; electrospray ionization (ESI+), scan, 200 to 800 m/z with lock mass correction. Analytes were identified by their accurate mass and retention time data for a known standard dissolved in used buffer (for the chemicals of the same nominal masses). These standards were either synthesized and their structures confirmed by nuclear magnetic resonance (NMR) (for ppGp, pGpp, and pGp) or purchased (ppGpp was purchased from Jena Biocsience and GTP from Sigma-Aldrich).

[10] = target: Der (Escherichia coli, UniProt P0A6P5); assay: DRaCALA Kd determination, purified Der; type: binding, E. coli; conditions: 2 nM 32P-labeled ligand, read-out: apparent Kd, Der
Experimental: as §2

[11] = target: T1, Hpt; parameters: method as in ref 29-32 (Table S1 refs 1, 2); conditions: ref 29-32 (Table S1 refs 1, 2); cited from earlier work
[12] = target: SpeC; parameters: method as in Table S1 (19); conditions: ref Table S1 (19); cited from earlier work
[13] = target: Gmk; parameters: method as in Table S1 (4); conditions: ref Table S1 (4); read-out: Kd, S. aureus Gmk; cited from earlier work
[14] = target: Apt (Escherichia coli, UniProt P69503); conditions: cited from earlier work
[15] = target: DerG1 (residues 2 to 184) (Escherichia coli, UniProt P0A6P5); assay: DRaCALA Kd determination, Der G1 domain; type: binding, E. coli; conditions: 2 nM 32P-labeled ligand, read-out: apparent Kd, DerG1
Experimental: as §1

[16] = target: SaRF3 (PrfC from S. aureus) (Staphylococcus aureus, UniProt A6QFN0); assay: DRaCALA binding, SaRF3; conditions: 12 µM protein
[17] = target: ObgE (Escherichia coli, UniProt P42641); parameters: method as in Table S1 (7); conditions: ref Table S1 (7); cited from earlier work
[18] = system: GppA; parameters: method as in Table S1 (17); conditions: ref Table S1 (17); cited from earlier work
[19] = in the presence of EDTA (without Mg2+), read-out: Kd, YgdH + EDTA (converted)
[20] = with 1.5 mM Mg2+, read-out: apparent Kd, YgdH + 1.5 mM Mg2+

Sequence of YgdH (P0ADR8 whole entry): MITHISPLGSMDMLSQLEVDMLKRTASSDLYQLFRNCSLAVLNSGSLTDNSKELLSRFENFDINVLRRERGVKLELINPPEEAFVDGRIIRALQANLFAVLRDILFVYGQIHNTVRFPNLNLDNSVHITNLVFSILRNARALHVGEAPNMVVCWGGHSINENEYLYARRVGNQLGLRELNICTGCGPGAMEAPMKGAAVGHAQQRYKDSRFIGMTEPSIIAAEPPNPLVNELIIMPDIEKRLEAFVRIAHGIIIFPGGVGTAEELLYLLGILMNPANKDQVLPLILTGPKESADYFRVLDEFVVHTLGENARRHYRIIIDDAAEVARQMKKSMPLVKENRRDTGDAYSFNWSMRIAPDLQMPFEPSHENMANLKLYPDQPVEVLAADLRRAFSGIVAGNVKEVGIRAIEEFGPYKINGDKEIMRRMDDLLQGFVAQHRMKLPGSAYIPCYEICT
Sequence of MutT (P08337 whole entry): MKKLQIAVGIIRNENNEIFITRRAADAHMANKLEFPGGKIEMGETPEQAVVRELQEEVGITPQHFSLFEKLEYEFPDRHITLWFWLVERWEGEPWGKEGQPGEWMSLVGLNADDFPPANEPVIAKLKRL
Sequence of Der (P0A6P5 whole entry): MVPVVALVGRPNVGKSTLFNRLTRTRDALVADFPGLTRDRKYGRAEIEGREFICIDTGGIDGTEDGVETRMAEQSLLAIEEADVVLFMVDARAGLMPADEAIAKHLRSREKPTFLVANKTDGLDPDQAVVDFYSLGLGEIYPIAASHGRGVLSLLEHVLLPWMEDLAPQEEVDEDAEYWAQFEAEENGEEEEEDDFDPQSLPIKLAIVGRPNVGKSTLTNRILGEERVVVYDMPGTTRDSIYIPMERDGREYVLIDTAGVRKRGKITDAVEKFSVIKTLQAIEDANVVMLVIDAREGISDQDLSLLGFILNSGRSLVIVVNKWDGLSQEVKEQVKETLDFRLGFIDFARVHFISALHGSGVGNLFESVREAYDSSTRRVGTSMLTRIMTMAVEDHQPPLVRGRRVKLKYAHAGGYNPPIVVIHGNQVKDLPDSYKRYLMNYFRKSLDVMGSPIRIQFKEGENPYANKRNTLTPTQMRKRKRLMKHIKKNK
T1 sequence (P0A9M2 whole entry): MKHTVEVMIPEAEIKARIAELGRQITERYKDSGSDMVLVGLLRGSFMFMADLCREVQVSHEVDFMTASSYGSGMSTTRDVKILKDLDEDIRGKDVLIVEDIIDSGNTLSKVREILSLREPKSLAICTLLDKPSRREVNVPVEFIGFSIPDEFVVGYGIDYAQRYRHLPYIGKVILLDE
Sequence of LepA (P60785 whole entry): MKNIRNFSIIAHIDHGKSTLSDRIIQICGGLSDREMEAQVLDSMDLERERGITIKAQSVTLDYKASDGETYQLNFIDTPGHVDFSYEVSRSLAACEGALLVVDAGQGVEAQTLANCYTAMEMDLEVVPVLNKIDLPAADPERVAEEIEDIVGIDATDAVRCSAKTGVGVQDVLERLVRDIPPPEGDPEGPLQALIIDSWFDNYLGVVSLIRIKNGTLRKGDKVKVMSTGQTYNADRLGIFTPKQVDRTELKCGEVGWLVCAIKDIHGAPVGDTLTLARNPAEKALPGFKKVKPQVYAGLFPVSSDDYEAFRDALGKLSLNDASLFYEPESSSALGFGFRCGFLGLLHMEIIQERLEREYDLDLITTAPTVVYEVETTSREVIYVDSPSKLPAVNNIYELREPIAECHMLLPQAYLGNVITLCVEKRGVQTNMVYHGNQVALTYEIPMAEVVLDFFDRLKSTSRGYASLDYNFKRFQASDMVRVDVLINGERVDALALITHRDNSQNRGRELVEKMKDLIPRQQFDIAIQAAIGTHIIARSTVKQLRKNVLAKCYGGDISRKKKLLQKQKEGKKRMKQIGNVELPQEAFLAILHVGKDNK
Sequence of DerG1 (residues 2 to 184) (P0A6P5 2-184): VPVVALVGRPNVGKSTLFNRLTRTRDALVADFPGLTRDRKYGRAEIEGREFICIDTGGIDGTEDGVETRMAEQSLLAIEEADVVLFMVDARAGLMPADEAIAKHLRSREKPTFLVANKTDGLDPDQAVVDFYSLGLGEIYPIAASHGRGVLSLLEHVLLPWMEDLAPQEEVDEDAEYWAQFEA
Sequence of SaRF3 (PrfC from S. aureus) (A6QFN0 whole entry): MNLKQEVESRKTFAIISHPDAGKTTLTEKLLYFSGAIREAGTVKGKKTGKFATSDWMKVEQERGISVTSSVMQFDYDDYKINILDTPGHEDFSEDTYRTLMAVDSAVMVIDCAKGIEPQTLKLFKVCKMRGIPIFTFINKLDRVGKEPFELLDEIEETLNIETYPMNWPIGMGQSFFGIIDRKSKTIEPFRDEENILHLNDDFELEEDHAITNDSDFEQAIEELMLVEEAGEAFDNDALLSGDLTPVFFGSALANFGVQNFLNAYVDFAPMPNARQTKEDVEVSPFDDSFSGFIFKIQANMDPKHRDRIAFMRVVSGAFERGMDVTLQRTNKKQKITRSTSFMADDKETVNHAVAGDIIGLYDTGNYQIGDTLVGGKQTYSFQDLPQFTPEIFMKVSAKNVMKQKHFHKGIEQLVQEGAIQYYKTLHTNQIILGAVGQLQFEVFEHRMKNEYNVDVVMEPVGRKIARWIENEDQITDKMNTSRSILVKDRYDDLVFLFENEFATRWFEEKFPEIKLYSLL
Sequence of Apt (P69503 whole entry, the tested form may be a part): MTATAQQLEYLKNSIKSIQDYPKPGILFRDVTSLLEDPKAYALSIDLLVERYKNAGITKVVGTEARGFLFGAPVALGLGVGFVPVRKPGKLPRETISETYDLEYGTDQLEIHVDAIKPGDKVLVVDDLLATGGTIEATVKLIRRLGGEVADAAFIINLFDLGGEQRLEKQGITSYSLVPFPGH
Sequence of ObgE (P42641 whole entry): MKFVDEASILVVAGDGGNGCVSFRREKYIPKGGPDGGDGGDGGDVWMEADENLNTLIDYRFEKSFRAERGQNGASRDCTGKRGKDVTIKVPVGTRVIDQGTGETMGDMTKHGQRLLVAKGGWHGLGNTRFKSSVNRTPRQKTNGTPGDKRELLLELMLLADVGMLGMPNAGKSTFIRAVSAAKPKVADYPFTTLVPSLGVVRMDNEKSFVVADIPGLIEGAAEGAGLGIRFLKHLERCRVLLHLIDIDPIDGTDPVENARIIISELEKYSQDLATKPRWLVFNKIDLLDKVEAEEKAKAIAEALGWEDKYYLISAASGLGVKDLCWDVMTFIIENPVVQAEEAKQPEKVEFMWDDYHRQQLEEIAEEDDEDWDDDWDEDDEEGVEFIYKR

SMILES	Kd [3]	Kd [4]	Kd [6, 19]	Kd [6, 20]	Kd [8]	cleavage by MutT [9]	Kd [10]	Kd [13]	Kd [15]	other results
Nc1nc2c(ncn2[C@@H]2O[C@H](COP(=O)(O)OP(=O)(O)O)[C@@H](OP(=O)(O)OP(=O)(O)O)[C@H]2O)c(=O)[nH]1 [ppGpp, guanosine tetraphosphate]	370 nM	6.1 ± 0.9 µM	4 ± 0.5 µM	24.4 ± 4.7 µM	950 ± 60 nM	degraded into smaller products; also recorded: cleaved most ppGpp	1800 nM and 1770 nM	6.02 µM	5.9 ± 2.5 µM	effect on RelA activity [1]: allosterically stimulates; Ki ([2]; in the absence of EF-Ts): 0.7 µM; Ki ([2]; in the presence of EF-Ts): 40 µM; IC50 [5]: 11 µM; relative binding to LepA (binding curves) [7]: tighter binding of ppGpp than pppGpp; also recorded: ND; stronger binding to ppGpp than pppGpp; inhibition of [α-32P]ppGpp cleavage by MutT ([9]; 1 µM MutT, 10 nM hot ppGpp, 100 µM competitor, 30°C, up to 1 h): very limited inhibitory effects; IC50 [11]: ~85 µM and 85 µM; Kd [12]: 598 ± 68 nM; IC50 [14]: ~1.5 mM; binding to SaRF3 [16]: very weak binding (if any); also recorded: No binding of ppGpp by 12 µM of PrfC from S. aureus; Ki [17]: 1600 nM
Nc1nc2c(ncn2[C@@H]2O[C@H](COP(=O)(O)OP(=O)(O)OP(=O)(O)O)[C@@H](OP(=O)(O)OP(=O)(O)O)[C@H]2O)c(=O)[nH]1 [pppGpp, guanosine pentaphosphate]	750 nM	6.2 ± 0.8 µM	1.6 µM and 1.59 µM	37.2 ± 6.5 µM	3850 nM	degraded into smaller products	6900 ± 2900 nM	4.01 µM	4.7 ± 2.3 µM	conversion by GppA [18]: Convert pppGpp to ppGpp; (17)

— article PMC5845004, “Novel (p)ppGpp Binding and Metabolizing Proteins of Escherichia coli” (mBio, 2018)
